Columns and labels:
Assay in all cases: in vitro antibacterial evaluation, MIC by broth dilution
Type in all cases: cell-based
[1] = tested on: Enterococcus sp.; conditions: broth dilution, 18 hours at 35° C.
Summary of the method: (§1)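 MIC = lowest antibiotic concentration preventing visible growth; inoculum 5×10^5 CFU/mL; drug range 64-0.06 μg/mL; Muller-Hinton II […]; NCCLS M7-A2 guidance.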

[2] = tested on: Escherichia coli; conditions: 18 hours at 35° C.
Summary of the method: as §1

[3] = tested on: Staphylococcus sp.; conditions: broth dilution, 18 hours at 35° C.
Summary of the method: as §1

[4] = tested on: Streptococcus sp.; conditions: broth dilution, 18 hours at 35° C.
Summary of the method: as §1

COC1CCC2(C)C(CCC3C2CCC2(C)C(C(C)CCC4OCC5OC(OC6C(CO)OC(Oc7ccc(CC8NC(=O)C(C(C)c9ccccc9)NC(=O)CNC(=O)C(CO)NC(=O)C(C(O)C9CNC(=N)N9C9OC(CO)C(O)C(O)C9O)NC(=O)C(C(O)C9CNC(=N)N9)NC8=O)cc7)C(O)C6O)C(O)C(O)C5O4)CCC32)C1 (stereo not shown) [Example 130]
16 µg/mL: MIC Enterococcus avium (GC 4558) ([1]; Enterococcus avium (GC 4558)) | MIC Enterococcus avium (GC 4558) ([1]; strain GC 4558) | MIC Coagulase Negative Staphylococcus (GC 4549) ([3]; strain GC 4549) | MIC Streptococcus pyogenes (GC 4563) ([4]; Streptococcus pyogenes (GC 4563)) | MIC Streptococcus pyogenes (GC 4563) ([4]; strain GC 4563)
1 µg/mL: MIC Streptococcus pneumoniae (GC 1894) ([4]; Streptococcus pneumoniae (GC 1894)) | MIC Streptococcus pneumoniae (GC 1894) ([4]; strain GC 1894)
32 µg/mL: MIC Enterococcus faecalis (ATCC 29212) ([1]; Enterococcus faecalis (ATCC 29212)) | MIC Enterococcus faecalis (GC 2242) ([1]; Enterococcus faecalis (GC 2242)) | MIC Enterococcus faecalis (GC 2691) ([1]; Enterococcus faecalis (GC 2691)) | MIC Enterococcus faecalis (GC 4552) ([1]; Enterococcus faecalis (GC 4552)) | MIC Enterococcus faecalis (GC 4554) ([1]; Enterococcus faecalis (GC 4554)) | MIC Enterococcus faecalis (GC 6189) ([1]; Enterococcus faecalis (GC 6189)) | MIC Enterococcus faecium (GC 4557) ([1]; Enterococcus faecium (GC 4557)) | MIC Enterococcus faecalis (ATCC 29212) ([1]; strain ATCC 29212) | MIC Enterococcus faecalis (GC 2242) ([1]; strain GC 2242) | MIC Enterococcus faecalis (GC 2691) ([1]; strain GC 2691) | MIC Enterococcus faecalis (GC 4552) ([1]; strain GC 4552) | MIC Enterococcus faecalis (GC 4554) ([1]; strain GC 4554) | MIC Enterococcus faecium (GC 4557) ([1]; strain GC 4557) | MIC Enterococcus faecalis (GC 6189) ([1]; strain GC 6189) | MIC Staphylococcus aureus (ATCC 29213) [3] | MIC Staphylococcus aureus (GC 1131) [3] | MIC Staphylococcus aureus (GC 3051) [3] | MIC Staphylococcus aureus (GC 3053) [3] | MIC Staphylococcus aureus (GC 4541) [3] | MIC Staphylococcus aureus (GC 4542) [3] | MIC Staphylococcus aureus (GC 4544) [3] | MIC Staphylococcus aureus (GC 4545) [3] | MIC Staphylococcus aureus (GC 1131) ([3]; inoculum 5×10^5 CFU/mL, strain GC 1131) | MIC Staphylococcus aureus (ATCC 29213) ([3]; strain ATCC 29213) | MIC Staphylococcus aureus (GC 3051) ([3]; strain GC 3051) | MIC Staphylococcus aureus (GC 3053) ([3]; strain GC 3053) | MIC Staphylococcus aureus (GC 4541) ([3]; strain GC 4541) | MIC Staphylococcus aureus (GC 4542) ([3]; strain GC 4542) | MIC Staphylococcus aureus-SMITH (GC 4543) ([3]; strain GC 4543) | MIC Staphylococcus aureus (GC 4544) ([3]; strain GC 4544) | MIC Staphylococcus aureus (GC 4545) ([3]; strain GC 4545) | MIC Staphylococcus haemolyticus (GC 4546) ([3]; strain GC 4546) | MIC Coagulase Negative Staphylococcus (GC 4547) ([3]; strain GC 4547) | MIC Coagulase Negative Staphylococcus (GC 4548) ([3]; strain GC 4548) | MIC Coagulase Negative Staphylococcus (GC 4551) ([3]; strain GC 4551) | MIC Coagulase Negative Staphylococcus (GC 6257) ([3]; strain GC 6257) | MIC Staphylococcus aureus-SMITH (GC 4543) ([3]; strain SMITH GC 4543)
>64 µg/mL: MIC Escherichia coli (ATCC 25922) ([2]; strain ATCC 25922) | MIC Escherichia coli (GC 4559) ([2]; strain GC 4559)
4 µg/mL: MIC Streptococcus pneumoniae (GC 4565) ([4]; Streptococcus pneumoniae (GC 4565)) | MIC Streptococcus pneumoniae (GC 4565) ([4]; strain GC 4565)
8 µg/mL: MIC Enterococcus faecalis (GC 4553) ([1]; Enterococcus faecalis (GC 4553)) | MIC Enterococcus faecium (GC 2243) ([1]; Enterococcus faecium (GC 2243)) | MIC Enterococcus faecium (GC 2243) ([1]; strain GC 2243) | MIC Enterococcus faecalis (GC 4553) ([1]; strain GC 4553) | MIC Streptococcus agalactiae (GC 4564) ([4]; Streptococcus agalactiae (GC 4564)) | MIC Streptococcus pneumoniae (ATCC 6301) ([4]; Streptococcus pneumoniae (ATCC 6301)) | MIC Streptococcus pneumoniae (ATCC 6301) ([4]; strain ATCC 6301) | MIC Streptococcus agalactiae (GC 4564) ([4]; strain GC 4564)
64 µg/mL: MIC Enterococcus faecalis (GC 3059) ([1]; Enterococcus faecalis (GC 3059)) | MIC Enterococcus faecium (GC 4556) ([1]; Enterococcus faecium (GC 4556)) | MIC Enterococcus faecalis (GC 3059) ([1]; strain GC 3059) | MIC Enterococcus faecium (GC 4556) ([1]; strain GC 4556) | MIC Escherichia coli (GC 4560) ([2]; strain GC 4560)

— patent US6914045B2, “Glycopeptide antibiotics” (Wyeth Holdings Corporation, priority 2001, dated 2005)
